“And” between values parts separate entries of the source, which are not always exact repeats. Identical values can stand only once. Marks after values point to notes of the source that are not given here.
tested on: Pseudomonas aeruginosa; assay: Broth microdilution MIC, Example 7 (NCL812 and analogues); type: cell-based; settings: 24 hours; 1st and 2nd replicate rows

Row | SMILES | MIC (μg/ml) at 24 hours, P. aeruginosa
1 | Cl.N=C(N/N=C/c1ccc(F)cc1)N/N=C/c1ccc(F)cc1 [NCL021] | >128 µg/mL
2 | Cl.N=C(NN=Cc1cccc(F)c1)NN=Cc1cccc(F)c1 [NCL023] | >128 µg/mL
3 | COc1cccc(C=NNC(=N)NN=Cc2cccc(OC)c2)c1.Cl [NCL029] | >128 µg/mL
4 | Cl.N=C(N/N=C/c1ccc(C(F)(F)F)cc1)N/N=C/c1ccc(C(F)(F)F)cc1 [NCL035] | >128 µg/mL
5 | Cc1ccc(/C=N/NC(=N)N/N=C/c2ccc(C)cc2)cc1.Cl [NCL038] | >128 µg/mL
6 | Cc1ccccc1C=NNC(=N)NN=Cc1ccccc1C.Cl [NCL039] | >128 µg/mL and >188 µg/mL
7 | Cc1cccc(C=NNC(=N)NN=Cc2cccc(C)c2)c1.Cl [NCL040] | >128 µg/mL
8 | Cl.N=C(N/N=C/c1cccc(Cl)c1)N/N=C/c1cccc(Cl)c1 [NCL054] | >128 µg/mL

tested on: MRSA; assay: as above; type: cell-based, Staphylococcus aureus; settings: MIC testing, two MRSA strains
How it was run: (§1)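 Values are MICs in μg/ml from broth microdilution per CLSI, with growth scored against a drug-free well.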

Row | SMILES | activity against MRSA among analogues
9 | Cl.N=C(N/N=C/c1ccc(F)cc1)N/N=C/c1ccc(F)cc1 [NCL021] | greatest activity
10 | Cl.N=C(NN=Cc1cccc(F)c1)NN=Cc1cccc(F)c1 [NCL023] | greatest activity
11 | COc1cccc(C=NNC(=N)NN=Cc2cccc(OC)c2)c1.Cl [NCL029] | greatest activity
12 | Cl.N=C(N/N=C/c1ccc(C(F)(F)F)cc1)N/N=C/c1ccc(C(F)(F)F)cc1 [NCL035] | greatest activity
13 | Cc1ccc(/C=N/NC(=N)N/N=C/c2ccc(C)cc2)cc1.Cl [NCL038] | greatest activity
14 | Cc1ccccc1C=NNC(=N)NN=Cc1ccccc1C.Cl [NCL039] | greatest activity
15 | Cc1cccc(C=NNC(=N)NN=Cc2cccc(C)c2)c1.Cl [NCL040] | greatest activity
16 | Cl.N=C(N/N=C/c1cccc(Cl)c1)N/N=C/c1cccc(Cl)c1 [NCL054] | greatest activity
17 | CCC(=NNC(=N)NN=C(CC)c1ccc(Cl)cc1)c1ccc(Cl)cc1.Cl [NCL153] | greatest activity

same assay, conditions: bioassay ranking, MRSA

Row | SMILES | MRSA
18 | Cl.N=C(N/N=C/c1ccc(F)cc1)N/N=C/c1ccc(F)cc1 [NCL021] | 16 µg/mL
19 | Cl.N=C(NN=Cc1cccc(F)c1)NN=Cc1cccc(F)c1 [NCL023] | 16 µg/mL
20 | COc1cccc(C=NNC(=N)NN=Cc2cccc(OC)c2)c1.Cl [NCL029] | 32 µg/mL
21 | Cl.N=C(N/N=C/c1ccc(C(F)(F)F)cc1)N/N=C/c1ccc(C(F)(F)F)cc1 [NCL035] | 16 µg/mL
22 | Cc1ccc(/C=N/NC(=N)N/N=C/c2ccc(C)cc2)cc1.Cl [NCL038] | 8 µg/mL
23 | Cc1cccc(C=NNC(=N)NN=Cc2cccc(C)c2)c1.Cl [NCL040] | 8 µg/mL
24 | Cl.N=C(N/N=C/c1cccc(Cl)c1)N/N=C/c1cccc(Cl)c1 [NCL054] | 3 µg/mL
25 | CCC(=NNC(=N)NN=C(CC)c1ccc(Cl)cc1)c1ccc(Cl)cc1.Cl [NCL153] | 24 µg/mL

same assay, conditions: isolate MRSA 1; 24 hours; 1st and 2nd replicate rows

Row | SMILES | MIC (μg/ml) at 24 hours, MRSA 1
26 | Cl.N=C(N/N=C/c1ccc(F)cc1)N/N=C/c1ccc(F)cc1 [NCL021] | 16 µg/mL
27 | Cl.N=C(NN=Cc1cccc(F)c1)NN=Cc1cccc(F)c1 [NCL023] | 16 µg/mL
28 | COc1cccc(C=NNC(=N)NN=Cc2cccc(OC)c2)c1.Cl [NCL029] | 32 µg/mL
29 | Cl.N=C(N/N=C/c1ccc(C(F)(F)F)cc1)N/N=C/c1ccc(C(F)(F)F)cc1 [NCL035] | 16 µg/mL
30 | Cc1ccc(/C=N/NC(=N)N/N=C/c2ccc(C)cc2)cc1.Cl [NCL038] | 8** μg/ml
31 | Cc1ccccc1C=NNC(=N)NN=Cc1ccccc1C.Cl [NCL039] | 32 µg/mL and 64 µg/mL
32 | Cc1cccc(C=NNC(=N)NN=Cc2cccc(C)c2)c1.Cl [NCL040] | 8 µg/mL
33 | Cl.N=C(N/N=C/c1cccc(Cl)c1)N/N=C/c1cccc(Cl)c1 [NCL054] | 4 µg/mL and 2 µg/mL

same assay, conditions: isolate MRSA 2; 24 hours; 1st and 2nd replicate rows

Row | SMILES | MIC (μg/ml) at 24 hours, MRSA 2
34 | Cl.N=C(N/N=C/c1ccc(F)cc1)N/N=C/c1ccc(F)cc1 [NCL021] | 16 µg/mL
35 | Cl.N=C(NN=Cc1cccc(F)c1)NN=Cc1cccc(F)c1 [NCL023] | 16 µg/mL
36 | COc1cccc(C=NNC(=N)NN=Cc2cccc(OC)c2)c1.Cl [NCL029] | 32 µg/mL
37 | Cl.N=C(N/N=C/c1ccc(C(F)(F)F)cc1)N/N=C/c1ccc(C(F)(F)F)cc1 [NCL035] | 16 µg/mL
38 | Cc1ccc(/C=N/NC(=N)N/N=C/c2ccc(C)cc2)cc1.Cl [NCL038] | 8** μg/ml
39 | Cc1ccccc1C=NNC(=N)NN=Cc1ccccc1C.Cl [NCL039] | 32 µg/mL
40 | Cc1cccc(C=NNC(=N)NN=Cc2cccc(C)c2)c1.Cl [NCL040] | 8 µg/mL
41 | Cl.N=C(N/N=C/c1cccc(Cl)c1)N/N=C/c1cccc(Cl)c1 [NCL054] | 2 µg/mL and 4 µg/mL

tested on: Escherichia coli; assay: as above; type: cell-based; settings: 24 hours; 1st and 2nd replicate rows

Row | SMILES | MIC (μg/ml) at 24 hours, E. coli
42 | Cl.N=C(N/N=C/c1ccc(F)cc1)N/N=C/c1ccc(F)cc1 [NCL021] | >128 µg/mL
43 | Cl.N=C(NN=Cc1cccc(F)c1)NN=Cc1cccc(F)c1 [NCL023] | >128 µg/mL
44 | COc1cccc(C=NNC(=N)NN=Cc2cccc(OC)c2)c1.Cl [NCL029] | >128 µg/mL
45 | Cl.N=C(N/N=C/c1ccc(C(F)(F)F)cc1)N/N=C/c1ccc(C(F)(F)F)cc1 [NCL035] | >128 µg/mL
46 | Cc1ccc(/C=N/NC(=N)N/N=C/c2ccc(C)cc2)cc1.Cl [NCL038] | >128 µg/mL
47 | Cc1ccccc1C=NNC(=N)NN=Cc1ccccc1C.Cl [NCL039] | >128 µg/mL
48 | Cc1cccc(C=NNC(=N)NN=Cc2cccc(C)c2)c1.Cl [NCL040] | >128 µg/mL
49 | Cl.N=C(N/N=C/c1cccc(Cl)c1)N/N=C/c1cccc(Cl)c1 [NCL054] | >128 µg/mL

tested on: not listed separately; assay: Bioassay ranking of the analogues tested; settings: M + R (MRSA and VRE combined)

Row | SMILES | M + R
50 | Cl.N=C(N/N=C/c1ccc(F)cc1)N/N=C/c1ccc(F)cc1 [NCL021] | 12 µg/mL
51 | Cl.N=C(NN=Cc1cccc(F)c1)NN=Cc1cccc(F)c1 [NCL023] | 20 µg/mL
52 | COc1cccc(C=NNC(=N)NN=Cc2cccc(OC)c2)c1.Cl [NCL029] | 32 µg/mL
53 | Cl.N=C(N/N=C/c1ccc(C(F)(F)F)cc1)N/N=C/c1ccc(C(F)(F)F)cc1 [NCL035] | 10.5 µg/mL
54 | Cc1ccc(/C=N/NC(=N)N/N=C/c2ccc(C)cc2)cc1.Cl [NCL038] | 9 µg/mL
55 | Cc1ccccc1C=NNC(=N)NN=Cc1ccccc1C.Cl [NCL039] | 30 µg/mL
56 | Cc1cccc(C=NNC(=N)NN=Cc2cccc(C)c2)c1.Cl [NCL040] | 8 µg/mL
57 | Cl.N=C(N/N=C/c1cccc(Cl)c1)N/N=C/c1cccc(Cl)c1 [NCL054] | 3.5 µg/mL
58 | CCC(=NNC(=N)NN=C(CC)c1ccc(Cl)cc1)c1ccc(Cl)cc1.Cl [NCL153] | 16 µg/mL

tested on: VRE; assay: Broth microdilution MIC, Example 7 (NCL812 and analogues); type: cell-based, Enterococcus spp.; settings: MIC testing, two VRE strains
How it was run: as §1

Row | SMILES | activity against VRE among analogues
59 | Cl.N=C(N/N=C/c1ccc(F)cc1)N/N=C/c1ccc(F)cc1 [NCL021] | greatest activity
60 | Cl.N=C(NN=Cc1cccc(F)c1)NN=Cc1cccc(F)c1 [NCL023] | greatest activity
61 | COc1cccc(C=NNC(=N)NN=Cc2cccc(OC)c2)c1.Cl [NCL029] | greatest activity
62 | Cl.N=C(N/N=C/c1ccc(C(F)(F)F)cc1)N/N=C/c1ccc(C(F)(F)F)cc1 [NCL035] | greatest activity
63 | Cc1ccc(/C=N/NC(=N)N/N=C/c2ccc(C)cc2)cc1.Cl [NCL038] | greatest activity
64 | Cc1ccccc1C=NNC(=N)NN=Cc1ccccc1C.Cl [NCL039] | greatest activity
65 | Cc1cccc(C=NNC(=N)NN=Cc2cccc(C)c2)c1.Cl [NCL040] | greatest activity
66 | Cl.N=C(N/N=C/c1cccc(Cl)c1)N/N=C/c1cccc(Cl)c1 [NCL054] | greatest activity
67 | CCC(=NNC(=N)NN=C(CC)c1ccc(Cl)cc1)c1ccc(Cl)cc1.Cl [NCL153] | greatest activity

same assay, conditions: bioassay ranking, VRE

Row | SMILES | VRE
68 | Cl.N=C(N/N=C/c1ccc(F)cc1)N/N=C/c1ccc(F)cc1 [NCL021] | 8 µg/mL
69 | Cl.N=C(NN=Cc1cccc(F)c1)NN=Cc1cccc(F)c1 [NCL023] | 24 µg/mL
70 | COc1cccc(C=NNC(=N)NN=Cc2cccc(OC)c2)c1.Cl [NCL029] | 32 µg/mL
71 | Cl.N=C(N/N=C/c1ccc(C(F)(F)F)cc1)N/N=C/c1ccc(C(F)(F)F)cc1 [NCL035] | 5 µg/mL
72 | Cc1ccc(/C=N/NC(=N)N/N=C/c2ccc(C)cc2)cc1.Cl [NCL038] | 10 µg/mL
73 | Cc1ccccc1C=NNC(=N)NN=Cc1ccccc1C.Cl [NCL039] | 20 µg/mL
74 | Cc1cccc(C=NNC(=N)NN=Cc2cccc(C)c2)c1.Cl [NCL040] | 8 µg/mL
75 | Cl.N=C(N/N=C/c1cccc(Cl)c1)N/N=C/c1cccc(Cl)c1 [NCL054] | 4 µg/mL
76 | CCC(=NNC(=N)NN=C(CC)c1ccc(Cl)cc1)c1ccc(Cl)cc1.Cl [NCL153] | 8 µg/mL

same assay, conditions: isolate VRE 1; 24 hours; 1st and 2nd replicate rows

Row | SMILES | MIC (μg/ml) at 24 hours, VRE 1
77 | Cl.N=C(N/N=C/c1ccc(F)cc1)N/N=C/c1ccc(F)cc1 [NCL021] | 8 µg/mL
78 | Cl.N=C(NN=Cc1cccc(F)c1)NN=Cc1cccc(F)c1 [NCL023] | 32 µg/mL
79 | COc1cccc(C=NNC(=N)NN=Cc2cccc(OC)c2)c1.Cl [NCL029] | 32 µg/mL
80 | Cl.N=C(N/N=C/c1ccc(C(F)(F)F)cc1)N/N=C/c1ccc(C(F)(F)F)cc1 [NCL035] | 8 µg/mL and 4 µg/mL
81 | Cc1ccc(/C=N/NC(=N)N/N=C/c2ccc(C)cc2)cc1.Cl [NCL038] | 8** μg/ml and 16** μg/ml
82 | Cc1ccccc1C=NNC(=N)NN=Cc1ccccc1C.Cl [NCL039] | 32 µg/mL
83 | Cc1cccc(C=NNC(=N)NN=Cc2cccc(C)c2)c1.Cl [NCL040] | 8 µg/mL
84 | Cl.N=C(N/N=C/c1cccc(Cl)c1)N/N=C/c1cccc(Cl)c1 [NCL054] | 4 µg/mL

same assay, conditions: isolate VRE 2; 24 hours; 1st and 2nd replicate rows

Row | SMILES | MIC (μg/ml) at 24 hours, VRE 2
85 | Cl.N=C(N/N=C/c1ccc(F)cc1)N/N=C/c1ccc(F)cc1 [NCL021] | 8 µg/mL
86 | Cl.N=C(NN=Cc1cccc(F)c1)NN=Cc1cccc(F)c1 [NCL023] | 16 µg/mL
87 | COc1cccc(C=NNC(=N)NN=Cc2cccc(OC)c2)c1.Cl [NCL029] | 32 µg/mL
88 | Cl.N=C(N/N=C/c1ccc(C(F)(F)F)cc1)N/N=C/c1ccc(C(F)(F)F)cc1 [NCL035] | 4 µg/mL
89 | Cc1ccc(/C=N/NC(=N)N/N=C/c2ccc(C)cc2)cc1.Cl [NCL038] | 8** μg/ml
90 | Cc1ccccc1C=NNC(=N)NN=Cc1ccccc1C.Cl [NCL039] | 8 µg/mL
91 | Cc1cccc(C=NNC(=N)NN=Cc2cccc(C)c2)c1.Cl [NCL040] | 8 µg/mL
92 | Cl.N=C(N/N=C/c1cccc(Cl)c1)N/N=C/c1cccc(Cl)c1 [NCL054] | 4 µg/mL

From patent US10253002B2, “Compounds and methods of treating infections” (Neoculi Pty Ltd., priority 2013, dated 2019)
